Measured values from paper PMC5321741, “Arylmethylamino steroids as antiparasitic agents” (Nature Communications, 2017).

Assays:
[1] = molecular target: T1, recombinant protein hGrx1-roGFP2 (Homo sapiens, UniProt P35754); assay: in vitro interaction with recombinant redox probe; type: biochemical; conditions: 10 nM to 100 µM, 4 h and 24 h
T1 construct: made in house
Protocol: (2) Chromogenic precipitating substrates following a poly-condensation (so called “polymerization”) pathway, which is tuneable by utilizing metal catalytic effects via introduction of metal chelating groups.32-33 […]
Heterologous overexpression of hGrx1-roGFP2 and in vitro measurements with the recombinant protein were carried out as described45 with minor modifications. […] The emission of hGrx1-roGFP2 (510 nm) after excitation at 405 nm and 475 nm was measured in a plate reader (Clariostar, BMG Labtech) with optimal read settings. The ratio of the fluorescence […]
signals at 405/475 nm were calculated and plotted against time and/or concentration of compound 1o or redox active compounds. […]
100 µM for 4 h and 24 h incubations. Transfection of the Pf3D7 strain with the redox sensor was carried out, and the parasites were cultured as described under constant drug pressure with 5 nM WR99210 (Jacobus Pharmaceuticals, New Jersey, USA).45,46 P. falciparum trophozoites were enriched via magnet separation.47 Parasitemia was counted by using Giemsa-stained blood smears. […] (6-8% parasitemia) were magnetically enriched (Miltenyi Biotec, Germany), counted by using the improved Neubauer hemocytometer (Brand GmbH, Germany), and returned to cell culture (at 0.5 x 10^6 trophozoites/µl) for at least 1 h to recover. […]

[2] = acute toxicity in vivo model; parameters: species or system mice; conditions: accumulative dose 100 mg kg−1 (5, 15, 30, 50 mg kg−1 at 2 h intervals), p.o. and i.p.
Protocol: The compound was applied at an accumulative dose of 100 mg kg^−1 (per os (p.o.). as well as intraperitoneally (i.p.)). The first application was 5 mg kg^−1, 2 h later 15 mg kg^−1, 2 h later 30 mg kg^−1 and again 2 h later 50 mg kg^−1. […] Moreover, we performed pharmacokinetics studies in mice, dosing i.v., i.p. and p.o. (Supplementary Table 5). […] In contrast, high exposure and sustained levels of ∼2 μM were obtained after i.p. dosing at 100 mg kg^−1.
In addition, cytotoxicity tests with compound 1o were carried out on immortalized human hepatocytes, Fa2N-4 cells, resulting in an LC50>50 μM. The best compound 1o has furthermore been tested in an acute toxicity in vivo model at the Swiss Tropical Institute, Basel.

COc1ccc2c(c1)CCC1C2CC[C@@]2(C)C1CC[C@H]2NCc1cc2ccccc2cc1O (some centres unmarked) [1o]
direct interaction with recombinant hGrx1-roGFP2 [1]: No direct interaction was detected | acute toxicity symptoms [2]: No acute toxicity symptoms were observed
